Several values for one entry are separate records, joined by “and”; a condition that tells them apart may be missing. Equal values may be shown once. Entries after “also recorded” stand apart in the source; their conditions may differ.
Legend:
Format in all cases: binding
MERS-CoV macro domain [1] = target: T1, MERS-CoV macro domain (Middle East respiratory syndrome-related coronavirus, UniProt K9N638)
MERS-CoV macro domain [2] = target: T1, MERS-CoV macro domain; remark: listed apart in the source
MERS-CoV macro domain [3] = target: T1, MERS-CoV macro domain; remark: listed apart in the source
MERS-CoV macro domain [4] = target: T1, MERS-CoV macro domain; remark: listed apart in the source

T1 sequence (K9N638 1110-1276 limits assumed): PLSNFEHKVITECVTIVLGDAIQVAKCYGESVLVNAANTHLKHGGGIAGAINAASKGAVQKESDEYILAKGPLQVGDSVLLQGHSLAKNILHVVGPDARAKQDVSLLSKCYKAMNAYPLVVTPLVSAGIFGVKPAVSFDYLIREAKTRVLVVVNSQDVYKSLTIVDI

Nc1ncnc2c1ncn2[C@@H]1O[C@H](COP(=O)(O)OP(=O)(O)OP(=O)(O)O)[C@@H](O)[C@H]1O [ATP, adenosine triphosphate]
NMR CSP, residue 4 (MERS-CoV macro domain [1]): 0.02128 and 0.03079
NMR CSP, residue 8 (MERS-CoV macro domain [1]): 0.08407 and 0.1389
NMR CSP, residue 11 (MERS-CoV macro domain [1]): 0.01204 and 0.01003
NMR CSP, residue 12 (MERS-CoV macro domain [1]): 0.02593 and 0.01302
NMR CSP, residue 13 (MERS-CoV macro domain [1]): 0.02822 and 0.05324
NMR CSP, residue 15 (MERS-CoV macro domain [1]): 0.05255 and 0.08443
NMR CSP, residue 16 (MERS-CoV macro domain [1]): 0.08559 and 0.1065
NMR CSP, residue 19 (MERS-CoV macro domain [1]): 0.2213 and 0.3991
NMR CSP, residue 20 (MERS-CoV macro domain [1]): 0.5582 and 0.5971
NMR CSP, residue 24 (MERS-CoV macro domain [1]): 0.02113 and 0.02272
NMR CSP, residue 27 (MERS-CoV macro domain [1]): 0.04023 and 0.04654
NMR CSP, residue 31 (MERS-CoV macro domain [1]): 0.01765 and 0.03281
NMR CSP, residue 32 (MERS-CoV macro domain [1]): 0.03557 and 0.06867
NMR CSP, residue 33 (MERS-CoV macro domain [1]): 0.003317 and 0.005514
NMR CSP, residue 35 (MERS-CoV macro domain [1]): 0.08722 and 0.0586
NMR CSP, residue 41 (MERS-CoV macro domain [1]): 0.07865 and 0.1421
NMR CSP, residue 42 (MERS-CoV macro domain [1]): 0.02022 and 0.03875
NMR CSP, residue 44 (MERS-CoV macro domain [1]): 0.117 and 0.1567
NMR CSP, residue 46 (MERS-CoV macro domain [1]): 0.2082 and 0.117
NMR CSP, residue 49 (MERS-CoV macro domain [1]): 0.1963 and 0.3148
NMR CSP, residue 52 (MERS-CoV macro domain [1]): 0.1171 and 0.2037
NMR CSP, residue 53 (MERS-CoV macro domain [1]): 0.06017 and 0.08476
NMR CSP, residue 54 (MERS-CoV macro domain [1]): 0.04378 and 0.08204
NMR CSP, residue 55 (MERS-CoV macro domain [1]): 0.03609 and 0.04139
NMR CSP, residue 56 (MERS-CoV macro domain [1]): 0.1144
NMR CSP, residue 59 (MERS-CoV macro domain [1]): 0.1073 and 0.0995
NMR CSP, residue 64 (MERS-CoV macro domain [1]): 0.02081 and 0.02918
NMR CSP, residue 67 (MERS-CoV macro domain [1]): 0.009187 and 0.006075
NMR CSP, residue 68 (MERS-CoV macro domain [1]): 0.007457 and 0.01342
NMR CSP, residue 69 (MERS-CoV macro domain [1]): 0.006641 and 0.01241
NMR CSP, residue 70 (MERS-CoV macro domain [1]): 0.007029 and 0.01308
NMR CSP, residue 74 (MERS-CoV macro domain [1]): 0.01357 and 0.01451
NMR CSP, residue 76 (MERS-CoV macro domain [1]): 0.1087 and 0.1584
NMR CSP, residue 79 (MERS-CoV macro domain [1]): 0.06062 and 0.09243
NMR CSP, residue 80 (MERS-CoV macro domain [1]): 0.02546 and 0.0359
NMR CSP, residue 82 (MERS-CoV macro domain [1]): 0.03386 and 0.028
NMR CSP, residue 88 (MERS-CoV macro domain [1]): 0.01281 and 0.02472
NMR CSP, residue 91 (MERS-CoV macro domain [1]): 0.02979 and 0.05588
NMR CSP, residue 92 (MERS-CoV macro domain [1]): 0.05948 and 0.09574
NMR CSP, residue 98 (MERS-CoV macro domain [1]): 0.08735 and 0.113
NMR CSP, residue 99 (MERS-CoV macro domain [1]): 0.04875 and 0.06519
NMR CSP, residue 101 (MERS-CoV macro domain [1]): 0.01539 and 0.022
NMR CSP, residue 102 (MERS-CoV macro domain [1]): 0.003066
NMR CSP, residue 104 (MERS-CoV macro domain [1]): 0.03263 and 0.04354
NMR CSP, residue 105 (MERS-CoV macro domain [1]): 0.0458 and 0.08781
NMR CSP, residue 108 (MERS-CoV macro domain [1]): 0.03048 and 0.01721
NMR CSP, residue 109 (MERS-CoV macro domain [1]): 0.0202 and 0.03155
NMR CSP, residue 111 (MERS-CoV macro domain [1]): 0.0136 and 0.02579
NMR CSP, residue 113 (MERS-CoV macro domain [1]): 0.02518 and 0.03785
NMR CSP, residue 117 (MERS-CoV macro domain [1]): 0.02758 and 0.03325
NMR CSP, residue 119 (MERS-CoV macro domain [1]): 0.05435 and 0.04262
NMR CSP, residue 122 (MERS-CoV macro domain [1]): 0.04092 and 0.06158
NMR CSP, residue 125 (MERS-CoV macro domain [1]): 0.4401 and 0.7457
NMR CSP, residue 126 (MERS-CoV macro domain [1]): 0.163 and 0.2535
NMR CSP, residue 131 (MERS-CoV macro domain [1]): 0.1039 and 0.07453
NMR CSP, residue 132 (MERS-CoV macro domain [1]): 0.1244 and 0.1155
NMR CSP, residue 135 (MERS-CoV macro domain [1]): 0.05654 and 0.08994
NMR CSP, residue 136 (MERS-CoV macro domain [1]): 0.05575 and 0.07379
NMR CSP, residue 138 (MERS-CoV macro domain [1]): 0.04766 and 0.08654
NMR CSP, residue 139 (MERS-CoV macro domain [1]): 0.05001 and 0.03334
NMR CSP, residue 140 (MERS-CoV macro domain [1]): 0.07046 and 0.09693
NMR CSP, residue 144 (MERS-CoV macro domain [1]): 0.02987 and 0.05222
NMR CSP, residue 148 (MERS-CoV macro domain [1]): 0.04492 and 0.05905
NMR CSP, residue 149 (MERS-CoV macro domain [1]): 0.04139 and 0.04999
NMR CSP, residue 151 (MERS-CoV macro domain [1]): 0.03194 and 0.04624
NMR CSP, residue 152 (MERS-CoV macro domain [1]): 0.2468
NMR CSP, residue 153 (MERS-CoV macro domain [1]): 0.1157 and 0.09952
NMR CSP, residue 155 (MERS-CoV macro domain [1]): 0.2226 and 0.3418
NMR CSP, residue 156 (MERS-CoV macro domain [1]): 0.03888
NMR CSP, residue 158 (MERS-CoV macro domain [1]): 0.03042 and 0.04983
NMR CSP, residue 159 (MERS-CoV macro domain [1]): 0.008826 and 0.007483
NMR CSP, residue 161 (MERS-CoV macro domain [1]): 0.02817 and 0.01678
NMR CSP, residue 164 (MERS-CoV macro domain [1]): 0.03315 and 0.0552
n (stoichiometry of binding) (MERS-CoV macro domain [2]): 1.28 ± 0.23
ΔH (MERS-CoV macro domain [2]): -0.103 ± 0.0621 kcal/mol
−TΔS (MERS-CoV macro domain [2]): -4.725 ± 0.115 kcal/mol
Melting temperature (Tm) of the MERS-CoV macro domain in complex, CD (MERS-CoV macro domain [3]): 44.4 °C
Melting temperature (Tm) of the MERS-CoV macro domain in complex, DSF (MERS-CoV macro domain [4]): 43.0 °C

Nc1ncnc2c1ncn2[C@@H]1O[C@H](COP(=O)(O)OP(=O)(O)O)[C@@H](O)[C@H]1O [ADP, adenosine diphosphate]
NMR CSP, residue 11 (MERS-CoV macro domain [1]): 0.01279 and 0.006701
NMR CSP, residue 29 (MERS-CoV macro domain [1]): 0.01328 and 0.01691
NMR CSP, residue 36 (MERS-CoV macro domain [1]): 0.05057
NMR CSP, residue 37 (MERS-CoV macro domain [1]): 0.07911
NMR CSP, residue 46 (MERS-CoV macro domain [1]): 0.3834
NMR CSP, residue 47 (MERS-CoV macro domain [1]): 0.05654 and 0.03639
NMR CSP, residue 48 (MERS-CoV macro domain [1]): 0.08159 and 0.1212
NMR CSP, residue 67 (MERS-CoV macro domain [1]): 0.0178 and 0.009143
NMR CSP, residue 75 (MERS-CoV macro domain [1]): 0.05887 and 0.06181
NMR CSP, residue 94 (MERS-CoV macro domain [1]): 0.1393
NMR CSP, residue 101 (MERS-CoV macro domain [1]): 0.03691 and 0.02294
NMR CSP, residue 125 (MERS-CoV macro domain [1]): 0.08579
NMR CSP, residue 130 (MERS-CoV macro domain [1]): 0.08457 and 0.1167
NMR CSP, residue 132 (MERS-CoV macro domain [1]): 0.01774 and 0.01343
NMR CSP, residue 149 (MERS-CoV macro domain [1]): 0.01454
NMR CSP, residue 154 (MERS-CoV macro domain [1]): 0.08237
NMR CSP, residue 156 (MERS-CoV macro domain [1]): 0.2276
n (stoichiometry of binding) (MERS-CoV macro domain [2]): 1.08 ± 0.06
ΔH (MERS-CoV macro domain [2]): -3.85 ± 1.8 kcal/mol
−TΔS (MERS-CoV macro domain [2]): -1.86 ± 1.51 kcal/mol
Melting temperature (Tm) of the MERS-CoV macro domain in complex, CD (MERS-CoV macro domain [3]): 43.7 °C
Melting temperature (Tm) of the MERS-CoV macro domain in complex, DSF (MERS-CoV macro domain [4]): 44.5 °C

Nc1ncnc2c1ncn2C1OC(COP(=O)(O)O)C(O)C1O (centres unmarked) [AMP, adenosine monophosphate]
NMR CSP, residue 12 (MERS-CoV macro domain [1]): 0.007029 and 0.005468
NMR CSP, residue 22 (MERS-CoV macro domain [1]): 0.06732 and 0.05323
NMR CSP, residue 23 (MERS-CoV macro domain [1]): 0.01249 and 0.01858
NMR CSP, residue 31 (MERS-CoV macro domain [1]): 0.03059 and 0.02592
NMR CSP, residue 55 (MERS-CoV macro domain [1]): 0.07284 and 0.04017
NMR CSP, residue 67 (MERS-CoV macro domain [1]): 0.009649 and 0.005916
NMR CSP, residue 70 (MERS-CoV macro domain [1]): 0.01453 and 0.01754
NMR CSP, residue 71 (MERS-CoV macro domain [1]): 0.01269 and 0.01423
NMR CSP, residue 78 (MERS-CoV macro domain [1]): 0.004301 and 0.003017
NMR CSP, residue 81 (MERS-CoV macro domain [1]): 0.019 and 0.02485
NMR CSP, residue 85 (MERS-CoV macro domain [1]): 0.01205 and 0.01581
NMR CSP, residue 90 (MERS-CoV macro domain [1]): 0.01829 and 0.02265
NMR CSP, residue 99 (MERS-CoV macro domain [1]): 0.0122 and 0.008579
NMR CSP, residue 110 (MERS-CoV macro domain [1]): 0.01629 and 0.01233
NMR CSP, residue 130 (MERS-CoV macro domain [1]): 0.0583 and 0.06532
NMR CSP, residue 138 (MERS-CoV macro domain [1]): 0.02281 and 0.03131
NMR CSP, residue 153 (MERS-CoV macro domain [1]): 0.05051
NMR CSP, residue 156 (MERS-CoV macro domain [1]): 0.1498
NMR CSP, residue 161 (MERS-CoV macro domain [1]): 0.003728 and 0.003225
NMR chemical shift perturbation behaviour / exchange regime (MERS-CoV macro domain [1]): fast-exchange; also recorded: almost no chemical shift perturbation
n (stoichiometry of binding) (MERS-CoV macro domain [2]): 1.05 ± 0.38
ΔH (MERS-CoV macro domain [2]): -2.674 ± 0.722 kcal/mol
−TΔS (MERS-CoV macro domain [2]): -2.419 ± 0.571 kcal/mol
Melting temperature (Tm) of the MERS-CoV macro domain in complex, CD (MERS-CoV macro domain [3]): 44.0 °C
Melting temperature (Tm) of the MERS-CoV macro domain in complex, DSF (MERS-CoV macro domain [4]): 42.5 °C

Source: publication PMC7840908 (Communications Biology, 2021)
